Results taken from patent publication US10087148B2, “Quinazolines as biogenic amine transport modulators” (THE UNITED STATES OF AMERICA AS REPRESENTED BY THE …, priority 2014, dated 2018).

Columns and labels:
DAT = DAT (Rattus norvegicus (Rat), UniProt P23977); assay: Inhibition of [3H]WIN35428 binding to rat caudate DAT; details: [3H]WIN35428, mean ± S.D., n = 3; for IC50: unit as printed in head (text gives 1100 nM where table prints 1.1)
Procedure: All of the test compounds were synthesized as described herein. […] The data from three experiments were pooled and fit to a dose-response curve equation (using KaleidaGraph; Synergy Software, Reading, Pa.) to yield an Emax and IC50 value. […] Selected compounds were also tested for their ability to inhibit [^3H]WIN35428 binding to rat caudate DAT.

[1] = biological target: norepinephrine transporter (NET) (Rattus norvegicus, UniProt Q63380); assay: [3H]norepinephrine (NE) uptake inhibition in rat brain synaptosomes; type: biochemical; details: for NE Uptake Emax / EC50: rat brain synaptosomes, 10 nM [3H]norepinephrine, mean ± SD; for EC50: read-out: NE Uptake EC50; for Emax: read-out: NET Uptake Emax; for IC50: read-out: NET Uptake IC50, mean ± S.D., n = 3
Procedure: Uptake inhibition assay for the norepinephrine transporter was conducted in rat brain synaptosomes as described elsewhere with minor modifications (Rothman et al., Synapse 39, 32-41 (2001)). Freshly removed whole brain minus cerebellum and caudate was homogenized in 10% ice-cold sucrose with 12 strokes of a hand-held Potter-Elvehjem homogenizer followed by centrifugation at 1000×g for 10 minutes. The supernatants were saved on ice and used immediately. Transporter activity at NET was assessed using 10 nM [^3H]norepinephrine. The assay buffer was Krebs-phosphate buffer containing 154.4 mM NaCl, 2.9 mM KCl, 1.1 mM CaCl2, 0.83 mM MgCl2, 5 mM glucose, 1 mg/mL ascorbic acid, and 50 μM pargyline. […] Uptake inhibition assays were conducted at 37° C. and were initiated by adding 100 μL of tissue to 900 μL assay buffer containing test drug and [^3H]norepinephrine. Test drugs were diluted in assay buffer containing 1 mg/mL bovine serum albumin. Nonspecific uptake was measured by incubating in the presence of 10 μM indatraline. The reactions were stopped after 10 minutes by rapid vacuum filtration with a cell harvester (BRANDEL) over GF/B filters (Whatman) presoaked in wash buffer maintained at 25° C. (10 mM Tris-HCl, pH 7.4/150 mM NaCl). Filters were rinsed with 6 mL wash buffer and retained tritium was quantified by a MicroBeta liquid scintillation counter (PerkinElmer) after overnight extraction in 0.6 mL of liquid scintillation cocktail (Cytoscint, ICN). The data from three experiments were pooled and fit to a dose-response curve equation (using Kaleidagraph), to yield an Emax and EC50 value.

[2] = biological target: T1, dopamine transporter (DAT) (Rattus norvegicus (Rat), UniProt P23977); assay: [3H]dopamine (DA) uptake inhibition in rat brain (caudate) synaptosomes; type: biochemical; details: for DA Uptake Emax / EC50: rat caudate synaptosomes, 5 nM [3H]dopamine, mean ± SD
Procedure: Uptake inhibition assay for the dopamine transporter was conducted in rat brain synaptosomes as described elsewhere with minor modifications (Rothman et al., Synapse 39, 32-41 (2001)). Freshly removed caudate was homogenized in 10% ice-cold sucrose with 12 strokes of a hand-held Potter-Elvehjem homogenizer followed by centrifugation at 1000×g for 10 min. The supernatants were saved on ice and used immediately. Transporter activity was assessed using 5 nM [^3H]dopamine. The assay buffer was Krebs-phosphate buffer containing 154.4 mM NaCl, 2.9 mM KCl, 1.1 mM CaCl2, 0.83 mM MgCl2, 5 mM glucose, 1 mg/mL ascorbic acid, and 50 μM pargyline. The selectivity of the uptake assay for DAT was optimized by including 100 nM citalopram and 100 nM desipramine as blockers of SERT and NET in the sucrose solution and assay buffer. Uptake inhibition assays were conducted at 25° C. and were initiated by adding 100 μl of tissue to 900 μL assay buffer containing test drug and [^3H]dopamine. Test drugs were diluted in assay buffer containing 1 mg/mL bovine serum albumin. Nonspecific uptake was measured by incubating in the presence of 10 μM indatraline. The reactions were stopped after 15 minutes by rapid vacuum filtration with a cell harvester (BRANDEL) over GF/B filters (Whatman) presoaked in wash buffer maintained at 25° C. (10 mM Tris-HCl, pH 7.4/150 mM NaCl). Filters were rinsed with 6 mL wash buffer and retained tritium was quantified by a MicroBeta liquid scintillation counter (PerkinElmer) after overnight extraction in 0.6 mL of liquid scintillation cocktail (Cytoscint, ICN). The data from three experiments were pooled and fit to a dose-response curve equation (using Kaleidagraph), to yield an Emax and EC50 value.
All of the test compounds were synthesized as described herein. Next, 8-point dose-response curves were generated for each compound (1-20,000 nM) in the [^3H]DA uptake assay. The data from three experiments were pooled and fit to a dose-response curve equation (using KaleidaGraph; Synergy Software, Reading, Pa.) to yield an Emax and IC50 value. […] Selected compounds were also tested for their ability to inhibit [^3H]WIN35428 binding to rat caudate DAT.

[3] = biological target: serotonin transporter (SERT) (Rattus norvegicus (Rat), UniProt P31652); assay: [3H]serotonin (5-HT) uptake inhibition in rat brain synaptosomes; type: biochemical; details: for Emax: mean ± S.D., n = 3, read-out: SERT Uptake Emax; for 5HT Uptake Emax / EC50: rat brain synaptosomes, 5 nM [3H]serotonin, mean ± SD
Procedure: Uptake inhibition assay for the serotonin transporter was conducted in rat brain synaptosomes as described elsewhere with minor modifications (Rothman et al., Synapse 39, 32-41 (2001)). Freshly removed whole brain minus cerebellum and caudate was homogenized in 10% ice-cold sucrose with 12 strokes of a hand-held Potter-Elvehjem homogenizer followed by centrifugation at 1000×g for 10 min. The supernatants were saved on ice and used immediately. Transporter activity at SERT was assessed using 5 nM [^3H]serotonin. The assay buffer was Krebs-phosphate buffer containing 154.4 mM NaCl, 2.9 mM KCl, 1.1 mM CaCl2, 0.83 mM MgCl2, 5 mM glucose, 1 mg/mL ascorbic acid, and 50 μM pargyline. […] Uptake inhibition assays were conducted at 25° C. and were initiated by adding 100 μL of tissue to 900 μL assay buffer containing test drug and [^3H]serotonin. Test drugs were diluted in assay buffer containing 1 mg/mL bovine serum albumin. Nonspecific uptake was measured by incubating in the presence of 10 μM indatraline. The reactions were stopped after 30 min by rapid vacuum filtration with a cell harvester (BRANDEL) over GF/B filters (Whatman) presoaked in wash buffer maintained at 25° C. (10 mM Tris-HCl, pH 7.4/150 mM NaCl). Filters were rinsed with 6 mL wash buffer and retained tritium was quantified by a MicroBeta liquid scintillation counter (PerkinElmer) after overnight extraction in 0.6 mL of liquid scintillation cocktail (Cytoscint, ICN). The data from three experiments were pooled and fit to a dose-response curve equation (using Kaleidagraph), to yield an Emax and EC50 value.

[4] = biological target: T1, dopamine transporter (DAT); assay: Dopamine transporter-mediated [3H]MPP+ release (d-amphetamine-induced, shift experiments) in rat caudate synaptosomes; type: biochemical; details: [3H]MPP+ release; for Emax: read-out: d-Amphetamine Emax in presence of blocker, blocker concentration per row, mean ± S.D., n = 3
[5] = mean ± S.D., n = 3, read-out: DAT Uptake Emax

T1 sequence (P23977 whole entry): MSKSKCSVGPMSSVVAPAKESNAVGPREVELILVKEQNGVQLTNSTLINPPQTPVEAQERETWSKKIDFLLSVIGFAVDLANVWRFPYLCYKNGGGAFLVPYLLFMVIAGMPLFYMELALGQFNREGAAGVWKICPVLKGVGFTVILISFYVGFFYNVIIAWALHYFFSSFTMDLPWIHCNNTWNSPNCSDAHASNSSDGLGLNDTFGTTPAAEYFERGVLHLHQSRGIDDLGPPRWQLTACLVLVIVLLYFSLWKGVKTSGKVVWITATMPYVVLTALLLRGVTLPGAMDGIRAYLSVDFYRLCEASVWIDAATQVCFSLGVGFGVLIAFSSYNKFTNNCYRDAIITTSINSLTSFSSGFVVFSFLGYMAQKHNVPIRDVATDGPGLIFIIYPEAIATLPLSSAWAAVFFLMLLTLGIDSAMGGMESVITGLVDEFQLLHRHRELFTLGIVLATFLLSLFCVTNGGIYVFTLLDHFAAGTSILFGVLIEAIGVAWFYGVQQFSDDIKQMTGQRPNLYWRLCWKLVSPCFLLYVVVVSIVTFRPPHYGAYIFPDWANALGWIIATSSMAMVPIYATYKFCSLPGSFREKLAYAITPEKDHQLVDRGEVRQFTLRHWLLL
Chain of DAT (P23977 whole entry): as above
Chain of serotonin transporter (SERT) (P31652 whole entry): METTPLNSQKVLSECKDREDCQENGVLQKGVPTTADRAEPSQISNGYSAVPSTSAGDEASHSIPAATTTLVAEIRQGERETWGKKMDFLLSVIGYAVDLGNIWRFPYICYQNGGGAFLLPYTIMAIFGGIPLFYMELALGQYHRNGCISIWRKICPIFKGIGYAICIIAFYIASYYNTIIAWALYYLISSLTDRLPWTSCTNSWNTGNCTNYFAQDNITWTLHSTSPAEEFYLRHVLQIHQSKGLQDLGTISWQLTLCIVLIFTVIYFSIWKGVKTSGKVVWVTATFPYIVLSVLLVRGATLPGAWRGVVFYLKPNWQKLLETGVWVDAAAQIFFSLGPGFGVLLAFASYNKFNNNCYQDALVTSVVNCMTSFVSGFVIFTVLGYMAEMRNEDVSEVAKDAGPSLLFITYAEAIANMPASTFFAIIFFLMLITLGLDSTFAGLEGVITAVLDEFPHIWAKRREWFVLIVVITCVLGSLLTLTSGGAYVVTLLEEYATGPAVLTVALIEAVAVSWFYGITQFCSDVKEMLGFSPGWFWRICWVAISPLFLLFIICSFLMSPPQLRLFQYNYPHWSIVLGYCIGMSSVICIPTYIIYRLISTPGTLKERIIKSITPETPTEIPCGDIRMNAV
Chain of norepinephrine transporter (NET) (Q63380 1-617): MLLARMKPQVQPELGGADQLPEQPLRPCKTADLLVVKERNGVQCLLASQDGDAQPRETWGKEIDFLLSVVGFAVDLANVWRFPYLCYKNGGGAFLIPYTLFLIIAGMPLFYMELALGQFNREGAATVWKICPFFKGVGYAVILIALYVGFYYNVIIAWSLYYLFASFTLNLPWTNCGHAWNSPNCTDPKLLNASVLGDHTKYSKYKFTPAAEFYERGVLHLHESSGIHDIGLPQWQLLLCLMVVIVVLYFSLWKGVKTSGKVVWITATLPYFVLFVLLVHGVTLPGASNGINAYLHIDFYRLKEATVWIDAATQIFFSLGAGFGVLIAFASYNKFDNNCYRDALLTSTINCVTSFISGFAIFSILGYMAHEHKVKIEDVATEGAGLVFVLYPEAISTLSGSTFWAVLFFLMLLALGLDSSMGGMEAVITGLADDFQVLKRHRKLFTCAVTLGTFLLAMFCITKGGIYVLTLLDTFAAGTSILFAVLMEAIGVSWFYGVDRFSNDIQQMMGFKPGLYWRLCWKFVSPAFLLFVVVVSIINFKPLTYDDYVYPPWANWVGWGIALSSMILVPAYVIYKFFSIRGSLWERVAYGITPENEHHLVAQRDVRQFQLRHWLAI

Row | SMILES | Emax (DAT) [%] | IC50 (DAT) [µM] | NE Uptake Emax [1] [% I] | EC50 [1] [µM] | Emax [1] [%] | IC50 [1] [µM] | Emax [2, 5] [%] | DA Uptake Emax [2] [% I] | EC50 [2] [µM] | Emax [3] [%] | 5HT Uptake Emax [3] [% I] | EC50 [3] [µM] | DAT Binding Emax (DAT) [%] | DAT Uptake Emax ([2]; mean ± S.D., n = 3) [%] | Emax at 0.125 µM ([4]; read-out: D-Amphetamine Emax in presence of compound, compound concentration 125 nM, mean ± SD) [%] | Emax [4] [%] | Emax ([2]; values in Table 9, read-out: Emax for DAT Uptake Inhibition) [%]
1 | CS(=O)(=O)Nc1ccc(-c2nc(NCC(O)(c3ccccc3)c3ccccc3)c3ccccc3n2)cc1 [Compound 4, N-(4-(4-((2-hydroxy-2,2-diphenylethyl)amino)quinazolin-2-yl)phenyl)methanesulfonamide] | 47 ± 7 | 0.97 ± 0.65 | 70 ± 2 | 0.426 ± 0.049 | 70 ± 2 | 0.426 ± 0.049 | 70 ± 2 | 70 ± 2 | 0.011 ± 0.002 | 55 ± 3 | 55 ± 3 | 0.05 ± 0.014 |  |  |  |  | 
2 | CS(=O)(=O)Nc1ccc(-c2nc(NCC(c3ccccc3)c3ccncc3)c3ccccc3n2)cc1 (centres unmarked) [Compound 10, N-(4-(4-((2-phenyl-2-(pyridin-4-yl)ethyl)amino)quinazolin-2-yl)phenyl)methanesulfonamide] |  |  | 76 ± 2 | 0.044 ± 0.006 | 76 ± 2 | 0.044 ± 0.006 |  | 71 ± 1 |  | 56 ± 1 | 56 ± 1 | 0.0087 ± 0.0009 | 52 ± 6 | 71 ± 1 | 103 ± 3 | 103 ± 3 | 
3 | Cc1cc(NS(C)(=O)=O)ccc1-c1nc(NCC(c2ccccc2)c2ccncc2)c2ccccc2n1 (centres unmarked) [Compound 29, N-(3-methyl-4-(4-((2-phenyl-2-(pyridin-4-yl)ethyl)amino)quinazolin-2-yl)phenyl)methanesulfonamide] | 72 ± 7 | 3.15 ± 1.11 | 71 ± 3 | 0.031 ± 0.007 | 71 ± 3 | 0.031 ± 0.007 | 74 ± 4 | 74 ± 4 | 0.0074 ± 0.002 | 58 ± 3 | 58 ± 3 | 0.008 ± 0.0028 |  |  |  |  | 
4 | CS(=O)(=O)Nc1ccc(-c2nc(NCC(c3ccccc3)c3ccccc3)c3ccccc3n2)cc1 [Compound 50, N-(4-(4-((2,2-diphenylethyl)amino)quinazolin-2-yl)phenyl)methanesulfonamide] | 65 ± 6 |  |  |  | 71 ± 2 | 0.09 ± 0.015 | 70 ± 2 |  |  | 56 ± 2 |  |  |  |  |  | 102 ± 2 | 70
5 | Cc1cc(NS(C)(=O)=O)ccc1-c1nc(NCC(c2ccccc2)c2ccccc2)c2ccccc2n1 [Compound 52, N-(4-(4-((2,2-diphenylethyl)amino)quinazolin-2-yl)-3-methylphenyl)methanesulfonamide] | 60 ± 7 |  |  |  | 65 ± 3 | 0.144 ± 0.03 | 60 ± 2 |  |  | 50 ± 2 |  |  |  |  |  |  | 
6 | CS(=O)(=O)Nc1ccc(-c2nc(NCC(c3ccccc3)c3ccccc3)c3ccccc3n2)c(Cl)c1 [Compound 53, N-(3-chloro-4-(4-((2,2-diphenylethyl)amino)quinazolin-2-yl)phenyl)methanesulfonamide] | 30 ± 3 |  |  |  | 67 ± 2 | 0.047 ± 0.01 | 67 ± 1 |  |  | 51 ± 2 |  |  |  |  |  |  | 
7 | CSc1ncc(-c2nc(NCC(c3ccccc3)c3ccccc3)c3ccccc3n2)cn1 [SRI-29338] | 63 ± 4 | 1.18 ± 0.93 |  |  | 62 ± 3 | 0.204 ± 0.047 | 71 ± 2 |  |  | 52 ± 3 |  |  |  |  |  |  | 
8 | CNc1ncc(-c2nc(NCC(c3ccccc3)c3ccccc3)c3ccccc3n2)cn1 [SRI-29554] | 59 ± 6 | 0.98 ± 0.46 |  |  | 78 ± 2 | 0.179 ± 0.027 | 71 ± 1 |  |  | 60 ± 3 |  |  |  |  |  |  | 
9 | Cn1cc2cc(-c3nc(NCC(c4ccccc4)c4ccccc4)c4ccccc4n3)ccc2n1 [SRI-29776] | 58 ± 3 | 6.09 ± 0.97 |  |  | 71 ± 3 | 0.229 ± 0.043 | 69 ± 2 |  |  | 61 ± 2 |  |  |  |  |  |  | 
10 | CN(C)c1ncc(-c2nc(NCC(O)(c3ccccc3)c3ccccc3)c3ccccc3n2)cn1 [SRI-29982] | 47 ± 6 | 2.46 ± 1.21 |  |  | 71 ± 2 | 0.259 ± 0.041 | 73 ± 2 |  |  | 51 ± 1 |  |  |  |  |  |  | 
11 | OC(CNc1nc(-c2ccc3[nH]ccc3c2)nc2ccccc12)(c1ccccc1)c1ccccc1 [SRI-29983] | 55 ± 3 | 1.29 ± 0.34 |  |  | 73 ± 6 | 0.203 ± 0.079 | 70 ± 2 |  |  | 57 ± 2 |  |  |  |  |  |  | 
12 | c1ccc(C(CNc2nc(-c3cnc4nccn4c3)nc3ccccc23)c2ccccn2)cc1 (centres unmarked) [SRI-30507] | 62 ± 7 | 4.8 ± 1.81 |  |  | 77 ± 2 | 0.132 ± 0.016 | 71 ± 2 |  |  | 54 ± 2 |  |  |  |  |  |  | 
13 | OC(CNc1nc(-c2cnc3nccn3c2)nc2ccccc12)(c1ccccc1)c1ccccc1 [SRI-30508] | 34 ± 3 | 0.15 ± 0.09 |  |  | 76 ± 9 | 0.069 ± 0.018 | 65 ± 1 |  |  | 56 ± 1 |  |  |  |  |  |  | 
14 | c1ccc(C(CNc2nc(-c3ccc4nccn4c3)nc3ccccc23)C2CCCCC2)cc1 (centres unmarked) [SRI-30513] | 50 ± 4 | 2.97 ± 1.03 |  |  | 65 ± 4 | 0.153 ± 0.055 | 72 ± 2 |  |  | 59 ± 4 |  |  |  |  |  |  | 
15 | c1ccc(C(CNc2nc(-c3ccc4nccn4c3)nc3ccccc23)c2cccnc2)cc1 (centres unmarked) [SRI-30946] | 44 ± 3 | 1.17 ± 0.32 |  |  | 75 ± 3 | 0.078 ± 0.017 | 70 ± 2 |  |  | 59 ± 3 |  |  |  |  |  |  | 
